Experimental data: ChEMBL document CHEMBL3576793, “Restoration of Chemosensitivity in P-Glycoprotein-Dependent Multidrug-Resistant Cells by Dihydro-β-agarofuran Sesquiterpenes from Celastrus vulcanicola” (J Nat Prod, 2015)

How the values were obtained:
[1] = target: T1, ATP-dependent translocase ABCB1 (Homo sapiens, UniProt P08183); assay: Inhibition of human MDR1 transfected in mouse NIH/3T3 MDR1-G185 cells assessed as daunomycin accumulation at 10 uM after 30 mins by flow cytometry (reference value: 13.2 +/- 1.1%); assay type: cell-based; parameters: scale not given: the % may be the effect or the level left; conditions: nih/3t3 mdr1-g185, 0.5 h
T1 sequence (P08183 whole entry): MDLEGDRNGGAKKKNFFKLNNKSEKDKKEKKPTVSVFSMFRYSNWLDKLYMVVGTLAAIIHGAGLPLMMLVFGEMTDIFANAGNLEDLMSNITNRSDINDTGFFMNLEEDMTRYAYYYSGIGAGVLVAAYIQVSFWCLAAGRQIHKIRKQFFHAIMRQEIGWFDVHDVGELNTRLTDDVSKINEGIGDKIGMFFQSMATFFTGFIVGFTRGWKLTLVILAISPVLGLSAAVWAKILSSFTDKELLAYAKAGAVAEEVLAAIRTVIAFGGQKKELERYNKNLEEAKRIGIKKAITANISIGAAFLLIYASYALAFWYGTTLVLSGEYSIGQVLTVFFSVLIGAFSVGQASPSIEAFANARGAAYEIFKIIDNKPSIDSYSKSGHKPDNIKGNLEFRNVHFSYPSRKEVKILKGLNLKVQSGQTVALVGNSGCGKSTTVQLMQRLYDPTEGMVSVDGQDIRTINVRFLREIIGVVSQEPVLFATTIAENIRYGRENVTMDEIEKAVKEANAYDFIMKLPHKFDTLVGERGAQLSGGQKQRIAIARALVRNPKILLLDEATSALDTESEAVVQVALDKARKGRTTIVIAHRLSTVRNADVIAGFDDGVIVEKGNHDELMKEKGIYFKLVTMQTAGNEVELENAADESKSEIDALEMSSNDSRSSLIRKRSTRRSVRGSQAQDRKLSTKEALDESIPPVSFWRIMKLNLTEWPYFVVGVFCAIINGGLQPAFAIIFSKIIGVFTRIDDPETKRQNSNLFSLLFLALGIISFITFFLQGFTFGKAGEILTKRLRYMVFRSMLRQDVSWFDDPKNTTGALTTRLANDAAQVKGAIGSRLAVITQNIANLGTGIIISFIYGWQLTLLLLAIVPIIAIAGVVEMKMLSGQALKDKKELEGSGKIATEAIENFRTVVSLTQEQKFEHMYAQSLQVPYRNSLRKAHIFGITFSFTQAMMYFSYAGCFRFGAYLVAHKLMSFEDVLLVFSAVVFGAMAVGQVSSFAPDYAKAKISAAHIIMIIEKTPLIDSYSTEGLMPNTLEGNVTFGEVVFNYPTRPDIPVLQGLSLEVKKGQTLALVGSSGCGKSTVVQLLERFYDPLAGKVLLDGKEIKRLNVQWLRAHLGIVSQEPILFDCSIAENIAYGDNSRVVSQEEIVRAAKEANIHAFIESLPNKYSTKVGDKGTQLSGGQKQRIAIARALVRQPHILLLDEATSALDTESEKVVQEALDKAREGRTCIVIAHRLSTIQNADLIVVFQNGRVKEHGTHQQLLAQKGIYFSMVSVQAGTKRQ

[2] = target: T1, ATP-dependent translocase ABCB1; assay: Inhibition of human MDR1 transfected in mouse NIH/3T3 MDR1-G185 cells assessed as […] daunomycin accumulation after 30 mins by flow cytometry; assay type: cell-based
[3] = Cytotoxicity against human MDR1 transfected mouse NIH/3T3 MDR1-G185 cells assessed as cell growth at 10 uM after 24 hrs by MTT assay; assay type: ADME, cell-based, NIH3T3; conditions: mouse NIH/3T3 MDR1-G185 cells transfected with human MDR1, read-out: Activity
[4] = Cytotoxicity against mouse NIH/3T3 cells assessed as cell growth at 10 uM after 24 hrs by MTT assay; assay type: cell-based, NIH3T3; conditions: read-out: Activity

`CC(=O)OC[C@@]12[C@@H](OC(C)=O)CC[C@](C)(O)[C@]13OC(C)(C)[C@H](C[C@@H]2OC(=O)c1ccccc1)[C@H]3OC(C)=O` gave an Activity [1] of 72.4%.
With `CC(=O)OC[C@]12[C@@H](OC(=O)c3ccccc3)[C@@H](OC(C)=O)[C@@H]3[C@@H](OC(=O)c4ccccc4)[C@]1(OC3(C)C)[C@@](C)(O)C[C@H](OC(C)=O)[C@@H]2OC(C)=O` the Activity [1] was 79.7%, the Ki [2] was 780 nM and the viability at 24 h, 10 µM [3] was 71.4%. The viability at 24 h, 10 µM [4] was 64.4%.
`CC(=O)OC[C@]12[C@@H](OC(=O)c3ccccc3)[C@@H](O)[C@@H]3[C@@H](OC(C)=O)[C@]1(OC3(C)C)[C@@](C)(O)C[C@H](OC(=O)c1ccccc1)[C@@H]2OC(C)=O` gave an Activity [1] of 73.2%.
With `CC(=O)O[C@H]1[C@@H](OC(=O)c2ccccc2)C[C@@H](C)[C@]23OC(C)(C)[C@H](C[C@H](OC(=O)c4ccccc4)[C@]12C)[C@H]3OC(=O)c1cccnc1` the Activity [1] was 80.1%, the Ki [2] was 290 nM and the viability at 24 h, 10 µM [3] was 70.2%. For the same compound, the viability at 24 h, 10 µM [4] was 75.4%.
`CC(=O)O[C@@H]1[C@@H]2[C@@H](OC(=O)c3ccccc3)[C@@]3(OC2(C)C)[C@](C)([C@@H]1OC(=O)c1ccccc1)[C@@H](OC(C)=O)[C@@H](O)C[C@]3(C)O` showed an Activity [1] of 73.2%.
`CC(=O)OC[C@]12[C@@H](OC(=O)c3ccccc3)C[C@@H]3[C@@H](OC(C)=O)[C@]1(OC3(C)C)[C@@](C)(O)C[C@H](OC(=O)c1ccccc1)[C@@H]2OC(C)=O` gave an Activity [1] of 73.6%.
`CC(=O)O[C@H]1[C@@H](OC(=O)c2ccccc2)[C@]2(C)[C@@H](O)[C@@H](OC(C)=O)C[C@](C)(O)[C@@]23C[C@@H]1C(C)(C)O3` gave an Activity [1] of 37%.
Work on `COc1ccc(CCN(C)CCCC(C#N)(c2ccc(OC)c(OC)c2)C(C)C)cc1OC` (configuration not stated) yielded an Activity [1] of 60.3% and a viability at 24 h, 10 µM [3] of 80.8%.
`CC(=O)O[C@H]1CC[C@](C)(O)[C@]23OC(C)(C)[C@H]([C@H](OC(=O)/C=C\c4ccccc4)[C@H](OC(=O)c4ccccc4)[C@]12C)[C@H]3OC(C)=O` showed an Activity [1] of 82.2%, a Ki [2] of 610 nM and a viability at 24 h, 10 µM [3] of 64.3%. For the same compound, the viability at 24 h, 10 µM [4] was 51.4%.
For `CC(=O)O[C@H]1[C@@H]2[C@@H](OC(=O)c3ccccc3)[C@@]3(OC2(C)C)[C@@](C)([C@@H](O)[C@@H](OC(C)=O)C[C@]3(C)O)[C@H]1OC(=O)c1ccccc1`, the Activity [1] was 73.1%.
With `CC(=O)OC[C@]12[C@@H](OC(=O)c3ccccc3)[C@@H](OC(C)=O)[C@@H]3C[C@]1(OC3(C)C)[C@H](C)C[C@H](OC(C)=O)[C@@H]2OC(C)=O` the Activity [1] was 68.2%.
`CC(=O)OC[C@]12[C@@H](OC(=O)c3ccccc3)[C@@H](OC(C)=O)[C@@H]3[C@@H](OC(C)=O)[C@]1(OC3(C)C)[C@@](C)(O)C[C@H](OC(C)=O)[C@@H]2OC(C)=O` gave an Activity [1] of 69.9%.
For `CC(=O)O[C@H]1C[C@](C)(O)[C@]23OC(C)(C)[C@H]([C@H](OC(=O)/C=C/c4ccccc4)[C@H](OC(=O)c4ccccc4)[C@]2(C)[C@H]1OC(C)=O)[C@H]3O`, the Activity [1] was 85.1%, the Ki [2] was 420 nM and the viability at 24 h, 10 µM [3] was 78.4%. The viability at 24 h, 10 µM [4] was 69%.
For `CC(=O)OC[C@]12[C@@H](OC(=O)c3ccccc3)[C@@H](OC(C)=O)[C@@H]3[C@@H](OC(C)=O)[C@]1(OC3(C)C)[C@@](C)(O)C[C@H](OC(=O)c1ccccc1)[C@@H]2OC(C)=O`, the Activity [1] was 73.8%.
